Results reported in US20250195457A1, “PHARMACEUTICAL COMPOSITION FOR TREATMENT OF PARKINSON'S DISEASE” (Eisai R&D Management Co., Ltd., priority 2022, published 2025).

Tests used:
[1] = tested on: Parkinson's disease model cynomolgus monkeys (MPTP); test: Test Example 1: NDSs after administration of Compound (I) alone in MPTP Parkinson's disease model monkeys; type: in vivo; design: key to Subgroup 2: Specific motor functions score: specific motor functions subscore, range 0-21
Description: The therapeutic effect of Compound (I) on Parkinson's disease was examined using Parkinson's disease model animals which are produced by administering MPTP (1-methyl-4-phenyl-1,2,3,6-tetrahydropyridine).
MPTP was administered to male cynomolgus monkeys at the age of 4 to 5 to make Parkinson's disease model cynomolgus monkeys. MPTP was additionally administered to animals with neurologic deficit scores (Neurological deficit scores: NDSs, Schneider et al., “Development of levodopa-induced dyskinesias in parkinsonian monkeys may depend upon rate of symptom onset and/or duration of symptoms”, Brain Res., 2003, 990:38-44.) of less than 25.
Eight Parkinson's disease model cynomolgus monkeys were randomized into 5 groups of approximately equal mean and variance in terms of Parkinson behavior rating (Tremor score) and body weight. On subsequent cycle 2, cycle 3, cycle 4 and cycle 5, the animals were crossed over to receive the other treatments. A wash out period of one week or more was set between each cycle.
By the end of the study, each animal had received all the five treatments. Istradefylline is an adenosine A2A receptor antagonist approved as a drug for improving a wearing off phenomenon in Parkinson's disease being treated with a levodopa-containing preparation in the United States of America and Japan (Patent Literature 4). As a vehicle, an aqueous solution containing 0.43% (w/v) methyl cellulose 400, 10% (v/v) dimethyl sulfoxide (DMSO), and 4.5% (w/v) Cremophor (R) was used.
Before the administration, and 1 hr., 4 hrs., and 24 hrs. after the administration of the test substances, the NDSs of the monkeys were evaluated. The evaluation items are as follows. The behavior evaluation was performed in a blinded manner. The NDSs of the groups were compared using Steel's test. The p-values of less than 0.05 were considered to be statistically significant.
Subgroup 1: generalized behaviors (0-32) • 1.1a Appetite • 0: Normal • 1: Up to 30% food left • 2: Up to 65% food left • 3: Greater than 65% food left • 1.1b Response to offered food • 0: Responds to offered food • 1: Inconsistent response to offered food • 2: Little to no interest in offered food • 1.2 Overall activity • 0: Normal • 1: Mild hypokinesia; decrease in spontaneous movement • 2: Moderate hypokinesia; sparse spontaneous movement • 3: Severe hypokinesia; no spontaneous movement; tends to remain in one place • 1.3 Appearance • 0: Normal • 1: Mild but noticeable decrease in self-maintenance • 2: Moderate decrease in self-maintenance • 3: Severe lack of self-maintenance • 1.4 Posture • 0: Normal • 1: Minor flexing or stooping • 2: Moderate flexing or stooping; head and upper body almost parallel to floor of cage • 3: Severe flexing or stooping; head lowered to feet • 1.5 Balance • 0: Normal • 1: Mild loss on arising or movement • 2: Moderate loss on arising or movement; occasionally falls or supports self to keep from falling • 3: Severe loss of balance; falls • 1.6 Climbing • 0: Climbing observed with no delays in initiation/execution • 1: Mild deficit in ability to climb and support weight • 2: Moderate deficit in ability to climb and support weight; tends to ‘slide down’ • 3: Absence of any climbing behavior • 1.7 Tremor • 0: Absent • 1: Slight and intermittent • 2: Slight and persistent or moderate and intermittent • 3: Moderate/severe and persistent • 1.8 Freezing during movement • 0: Absent • 1: Occasional freezing for brief periods • 2: Occasional freezing for prolonged periods or frequent freezing for brief periods • 3: Prolonged and frequent freezing • 1.9 Facial expression • 0: Normal • 1: Mild hypomimia • 2: Moderate hypomimia • 3: Severe, masked fixed faces • 1.10 Defense reaction • 0: Normal • 1: Mild, noticeable reduction in reaction or slowed reaction, but can be provoked to react • 2: Moderate reduction in reaction; can produce facial display but not body reaction • 3: Little to no response
Subgroup 2: Specific Motor Functions (0-21)

various animal models = conditions: cited from earlier work
[2] = Compound (I) high dose 50 mg/kg (G4), 1 hr. after administration
[3] = Compound (I) high dose 50 mg/kg (G4), 4 hrs. after administration
[4] = Compound (I) high dose 50 mg/kg (G4), 24 hrs. after administration
[5] = Compound (I) high dose 50 mg/kg (G4), Pre (before administration)
[6] = Compound (I) low dose 5 mg/kg (G2), 1 hr. after administration
[7] = Compound (I) low dose 5 mg/kg (G2), 4 hrs. after administration
[8] = Compound (I) low dose 5 mg/kg (G2), 24 hrs. after administration
[9] = Compound (I) low dose 5 mg/kg (G2), Pre (before administration)
[10] = Compound (I) middle dose 15 mg/kg (G3), 1 hr. after administration
[11] = Compound (I) middle dose 15 mg/kg (G3), 4 hrs. after administration
[12] = Compound (I) middle dose 15 mg/kg (G3), 24 hrs. after administration
[13] = Compound (I) middle dose 15 mg/kg (G3), Pre (before administration)

## NS(=O)(=O)N[C@H]1c2c(F)cc(F)cc2CC1(F)F [Compound (I), N-[(1S)-2,2,5,7-tetrafluoro-2,3-dihydro-1H-inden-1-yl]sulfamide]
[1]; [2]
  Subgroup 1: GENERALIZED BEHAVIORS score: 17.1 ± 0.8
  Subgroup 2: Specific motor functions score: 12.0 ± 0.5
  Total score of NDSs: 29.1 ± 1.3
  Tremor score: 1.6 ± 0.2
[1]; [3]
  Subgroup 1: GENERALIZED BEHAVIORS score: 14.8 ± 1.0
  Subgroup 2: Specific motor functions score: 9.9 ± 0.5
  Total score of NDSs: 24.6 ± 1.3
  Tremor score: 1.1 ± 0.1
[1]; [4]
  Subgroup 1: GENERALIZED BEHAVIORS score: 17.3 ± 1.1
  Subgroup 2: Specific motor functions score: 12.0 ± 0.6
  Total score of NDSs: 29.3 ± 1.6
  Tremor score: 1.4 ± 0.2
[1]; [5]
  Subgroup 1: GENERALIZED BEHAVIORS score: 19.0 ± 0.8
  Subgroup 2: Specific motor functions score: 13.5 ± 0.4
  Total score of NDSs: 32.5 ± 1.1
  Tremor score: 2.1 ± 0.1
[1]; [6]
  Subgroup 1: GENERALIZED BEHAVIORS score: 16.1 ± 0.9
  Subgroup 2: Specific motor functions score: 11.5 ± 0.6
  Total score of NDSs: 27.6 ± 1.5
  Tremor score: 1.8 ± 0.2
[1]; [7]
  Subgroup 1: GENERALIZED BEHAVIORS score: 16.0 ± 0.7
  Subgroup 2: Specific motor functions score: 12.5 ± 0.3
  Total score of NDSs: 28.5 ± 1.0
  Tremor score: 1.8 ± 0.2
[1]; [8]
  Subgroup 1: GENERALIZED BEHAVIORS score: 17.1 ± 0.8
  Subgroup 2: Specific motor functions score: 11.9 ± 0.4
  Total score of NDSs: 29.0 ± 1.0
  Tremor score: 2.1 ± 0.1
[1]; [9]
  Subgroup 1: GENERALIZED BEHAVIORS score: 17.4 ± 0.8
  Subgroup 2: Specific motor functions score: 13.3 ± 0.5
  Total score of NDSs: 30.6 ± 1.1
  Tremor score: 2.0 ± 0.0
[1]; [10]
  Subgroup 1: GENERALIZED BEHAVIORS score: 15.5 ± 1.0
  Subgroup 2: Specific motor functions score: 12.3 ± 0.5
  Total score of NDSs: 27.8 ± 1.5
  Tremor score: 1.6 ± 0.2
[1]; [11]
  Subgroup 1: GENERALIZED BEHAVIORS score: 15.0 ± 0.8
  Subgroup 2: Specific motor functions score: 11.5 ± 0.4
  Total score of NDSs: 26.5 ± 1.0
  Tremor score: 1.6 ± 0.2
[1]; [12]
  Subgroup 1: GENERALIZED BEHAVIORS score: 16.8 ± 0.9
  Subgroup 2: Specific motor functions score: 12.8 ± 0.3
  Total score of NDSs: 29.5 ± 1.1
  Tremor score: 1.8 ± 0.2
[1]; [13]
  Subgroup 1: GENERALIZED BEHAVIORS score: 17.3 ± 0.6
  Subgroup 2: Specific motor functions score: 12.9 ± 0.4
  Total score of NDSs: 30.1 ± 0.9
  Tremor score: 2.0 ± 0.0
Various animal models
  analgesic effect: exhibit an analgesic effect
